Test results taken from publication PMC10326086 (Cancer Chemotherapy and Pharmacology, 2023).
Where two headings read alike, the source gives them in different places.

Assays:
[1] = system: QTcF interval in patients with advanced solid tumors; conditions: human, in vivo
Text: Estimates were made of the mean change in QTcF at the geometric mean Cmax on days 1 and 3 from the fitted model, with corresponding 90% two-sided confidence intervals (CIs).

patients = system: patients; parameters: method as in AstraZeneca, data on file, 2022; conditions: preliminary data; ref AstraZeneca, data on file, 2022; cited from earlier work
[2] = system: ECG intervals in patients with advanced solid tumors; experiment: Digital 12-lead ECG (dECG) assessments, time-matched change from baseline; conditions: over the treatment period (days 1–3, 24 h post-dose)
Method: (§1) On day − 2, patients underwent dECG to determine eligibility by central review. On day − 1, baseline dECG assessments were performed at clock times matched to the planned/scheduled dECG assessment times on days 1 and 3. […] Doses were administered under fasting conditions (2 h pre-dose to 2 h post-dose), with prescribed anti-emetic(s) given orally 30 min prior to each dose [20].
(§2) Patients had their final dECG/PK assessments on day 4, 24 h post-dose. Baseline for dECG assessments was defined as the time-matched observation on day − 1. Triplicate dECG recordings were taken within an approximate 5-min period prior to PK sample collection and as close to the scheduled times as possible. Patients rested for ≥ 10 min prior to dECG recording and were in the same supine body position for all recordings. HR and RR, QT, PR, and QRS interval parameters were recorded. Standardized equipment was provided by the central ECG laboratory. Recorded dECGs were sent to the central ECG laboratory for review and interpretation, using their standard operating procedures and with manual adjudication (3 beat on lead II).

[3] = system: patients with advanced solid tumors; conditions: cited from earlier work
[4] = parameters: method as in doi:10.1158/1538-7445.am2019-ct012; conditions: after 200 mg bid dosing; cited from earlier work
[5] = system: patients with advanced solid tumors; conditions: human, in vivo
Text: (§3) Safety was appraised throughout the study by the assessment of adverse events (AEs; graded by Common Terminology Criteria for Adverse Events [CTCAE], version 4.03), physical examination, and evaluation of vital signs, ECG, and laboratory data (clinical chemistry and hematology). Dose reductions were not allowed.

[6] = system: ECG intervals in patients with advanced solid tumors; conditions: human, in vivo
Method: as §1, §2

[7] = Plasma pharmacokinetics of adavosertib
[8] = system: patients with advanced solid tumors; experiment: Safety and tolerability (adverse events, CTCAE version 4.03); conditions: n = 21
Text: as §3

QTc interval = conditions: in vivo; cited from earlier work
[9] = human, in vivo, 225 mg, 2.5 days

C=CCn1c(=O)c2cnc(Nc3ccc(N4CCN(C)CC4)cc3)nc2n1-c1cccc(C(C)(C)O)n1 [adavosertib]
Day effect estimate, concentration–ΔQTcF model [1]: −1.6 | Intercept estimate, concentration–ΔQTcF model [1]: −2.4 | Upper limits of predicted 90% CIs for ΔQTcF, sensitivity analysis [1]: < 1.5 ms | Adverse drug reactions to adavosertib monotherapy (patients): include QTc prolongation | Patients with QTcF > 450 ms [2]: No patient | Patients with increase in QTcF of > 60 ms [2]: No patient | Dose proportionality of exposure ([3]; qd dosing, between 200 and 300 mg, single and multiple doses, preliminary): exposure increased more than dose proportionally | Maximum tolerated dose ([3]; twice daily (bid) over 2.5 days per week per 21-day cycle): 225 mg | AUC0–12 [4]: 8.1 µM·h | Causally related AEs of any grade: Anemia [5]: 1 (4.8) Number of patients (%) | Causally related AEs of any grade: Constipation [5]: 1 (4.8) Number of patients (%) | Causally related AEs of any grade: Decreased appetite [5]: 1 (4.8) Number of patients (%) | Causally related AEs of any grade: Diarrhea [5]: 6 (28.6) Number of patients (%) | Causally related AEs of any grade: Vomiting [5]: 2 (9.5) Number of patients (%) | Causally related grade ≥3 AEs: Anemia [5]: 1 (4.8) Number of patients (%) | Causally related grade ≥3 AEs: Constipation [5]: 0 Number of patients (%) | Causally related grade ≥3 AEs: Decreased appetite [5]: 0 Number of patients (%) | Causally related grade ≥3 AEs: Diarrhea [5]: 1 (4.8) Number of patients (%) | Causally related grade ≥3 AEs: Nausea [5]: 1 (4.8) Number of patients (%) | Causally related grade ≥3 AEs: Vomiting [5]: 1 (4.8) Number of patients (%) | Causally related AEs of any grade: Any AE ([5]; 2.5 days): 11 (52.4) Number of patients (%) | Causally related AEs of any grade: Nausea ([5]; 2.5 days): 6 (28.6) Number of patients (%) | Causally related grade ≥3 AEs: Any AE ([5]; 2.5 days): 2 (9.5) Number of patients (%) | Patients who discontinued treatment because of AEs ([5]; 2.5 days): 9.5% | Patients with AEs ([5]; 2.5 days): 76.2% | Patients with CTCAE grade 3 anemia ([5]; 2.5 days): 4.8% | Patients with CTCAE grade 3 diarrhea ([5]; 2.5 days): 4.8% | Patients with CTCAE grade 3 hypotension ([5]; 2.5 days): 4.8% | Patients with CTCAE grade 3 nausea ([5]; 2.5 days): 4.8% | Patients with a serious AE (vomiting, not considered drug related) ([5]; 2.5 days): 4.8% | Patients with diarrhea (any causality) ([5]; 2.5 days): 33.3% | Patients with nausea (any causality) ([5]; 2.5 days): 33.3% | Patients with treatment-related AEs ([5]; 2.5 days): 52.4% | Patients with treatment-related anemia ([5]; 2.5 days): 4.8% | Patients with treatment-related constipation ([5]; 2.5 days): 4.8% | Patients with treatment-related decreased appetite ([5]; 2.5 days): 4.8% | Patients with treatment-related diarrhea ([5]; 2.5 days): 28.6% | Patients with treatment-related nausea ([5]; 2.5 days): 28.6% | Patients with treatment-related vomiting ([5]; 2.5 days): 9.5% | Patients with vomiting (any causality) ([5]; 2.5 days): 23.8% | Total number of treatment-related AEs ([5]; 2.5 days): 17 | Mean change in HR, range over time points ([6]; 1 day): − 1.7 to 2.9 | Mean change in PR interval, range over time points ([6]; 1 day): − 4.4 to 3.5 | Mean change in QRS interval, range over time points ([6]; 1 day): − 1.2 to 1.4 | Mean change in RR interval, range over time points ([6]; 1 day): − 38.0 to 22.3 | Patients with QTcF increase > 60 ms at any time during treatment ([6]; 1 day): 0 n (%) | Patients with QTcF value > 450 ms and increase > 30 ms ([6]; 1 day): 0 n (%) | Patients with QTcF value > 450 ms at any time during treatment ([6]; 1 day): 0 n (%) | Patients with QTcF value > 480 ms at any time during treatment ([6]; 1 day): 0 n (%) | Patients with QTcF value > 500 ms and increase > 60 ms ([6]; 1 day): 0 n (%) | Patients with QTcF value > 500 ms at any time during treatment ([6]; 1 day): 0 n (%) | Mean change in HR, range over time points ([6]; 3 day): 1.4 to 9.5 bpm | Mean change in PR interval, range over time points ([6]; 3 day): − 4.4 to 0.3 | Mean change in QRS interval, range over time points ([6]; 3 day): − 1.8 to − 2.0 | Mean change in RR interval, range over time points ([6]; 3 day): − 102.5 to − 30.4 | Patients with QTcF increase > 30 ms at any time during treatment ([6]; 3 day): 1 (4.8) n (%) | Patients with QTcF increase > 60 ms at any time during treatment ([6]; 3 day): 0 n (%) | Patients with QTcF value > 450 ms and increase > 30 ms ([6]; 3 day): 0 n (%) | Patients with QTcF value > 450 ms at any time during treatment ([6]; 3 day): 0 n (%) | Patients with QTcF value > 480 ms at any time during treatment ([6]; 3 day): 0 n (%) | Patients with QTcF value > 500 ms and increase > 60 ms ([6]; 3 day): 0 n (%) | Patients with QTcF value > 500 ms at any time during treatment ([6]; 3 day): 0 n (%) | CLss/F, arithmetic mean (SD) ([7]; day 3): 43.2 L/h | CLss/F, median ([7]; day 3): 41.5 L/h | AUC0–12, median ([7]; human, in vivo): 5.383 µM·h | Cavg, arithmetic mean (SD) ([7]; human, in vivo): 944.8 nM | Cavg, geometric mean ([7]; human, in vivo): 901.2 nM | Cavg, median ([7]; human, in vivo): 898.9 nM | Cmin, arithmetic mean (SD) ([7]; human, in vivo): 517.7 nM | Cmin, geometric mean ([7]; human, in vivo): 410.4 nM | Cmin, median ([7]; human, in vivo): 499.0 nM | Tmax ([7]; human, in vivo): 3 h | tmax, median ([7]; human, in vivo): 2.5 h | Accumulation for AUC0–12 over 2.5 days of bid dosing [7, 9]: approximately 2.3 fold | Accumulation for Cmax over 2.5 days of bid dosing [7, 9]: ~2.1 fold | AUC(0-t) ([7]; human, in vivo, AUC0–12, arithmetic mean (SD)): 11.3 µM·h | AUC(0-t) ([7]; human, in vivo, AUC0–12, median): 10.6 µM·h | Cmax ([7]; human, in vivo, arithmetic mean (SD)): 1500 nM | Cmax ([7]; human, in vivo, median): 1520 nM | AUC(0-t) ([7]; human, in vivo, po, 225 mg, AUC0–12, geometric mean): 4.94 µM·h | AEs with an outcome of death [8]: No AEs with an outcome of death

CN[C@H]1CC[C@@H](c2ccc(Cl)c(Cl)c2)c2ccccc21 [sertraline]
Risk of TdP (QTc interval): conditional risk of TdP
